# How the values were obtained:
# Test in all cases: Greenhouse test, post-emergence treatment
# Settings in all cases: application rate 0.5 kg/ha, scale 0 to 100
# [1] = tested on: AMARE; format: in vivo, Amaranthus retroflexus
# Source text: (§1) The culture containers used were plastic flowerpots containing loamy sand with approximately 3.0% of humus as the substrate. The seeds of the test plants were sown separately for each species.
# (§2) For the post-emergence treatment, the test plants were first grown to a height of […], depending on the plant habit, and only then treated with the active ingredients which had been suspended or emulsified in water. For this purpose, the test plants were either sown directly and grown in the same containers, or they were first grown separately as seedlings and transplanted into the test containers a few days prior to treatment.
# (§3) Depending on the species, the plants were kept at 10-25° C. or 20-35° C., respectively.
# (§4) The test period extended over 2 to 4 weeks. During this time, the plants were tended, and their response to the individual treatments was evaluated.
# (§5) Evaluation was carried out using a scale from 0 to 100. 100 means no emergence of the plants, or complete destruction of at least the aerial moieties, and 0 means no damage, or normal course of growth. A moderate herbicidal activity is given at values of at least 60, a good herbicidal activity is given at values of at least 70, and a very good herbicidal activity is given at values of at least 85.
# [2] = tested on: ECHCG; format: in vivo, Echinocloa crus-galli
# Source text: as §1, §2, §3, §4, §5
# [3] = tested on: ABUTH; format: in vivo, Abutilon theophrasti
# Source text: as §1, §2, §3, §4, §5
compound,measurement,setting,value
"CC(c1nc(N)nc(Nc2c(F)c(F)cc(F)c2F)n1)C1CC1 (stereo not drawn) [Example 5, 6-(1-cyclopropylethyl)-N4-(2,3,5,6-tetrafluorophenyl)-1,3,5-triazine-2,4-diamine]",herbicidal activity,[1],very good herbicidal activity (a very good herbicidal activity is given at values of at least 85)
same,herbicidal activity,[2],very good herbicidal activity (a very good herbicidal activity is given at values of at least 85)
same,herbicidal activity,[3],very good herbicidal activity (a very good herbicidal activity is given at values of at least 85)

# Reference: patent publication US9999222B2, “Herbicidal combination comprising azines” (BASF SE, priority 2014, dated 2018)
